Measured values from patent US20230144203A1 (SHANGHAI SENHUI MEDICINE CO., LTD., priority 2020, published 2023).
One block for each molecule: values may come before it.

Columns and labels:
MDA-MB-468 = assay: Test Example 1 in vitro cytotoxic activity screening (CTG); assay type: cell-based; conditions: for Maximum inhibition: MDA-MB-468, CTG
Description: (§1) The CTG is used for detecting the ATP content in the experiment, and the survival condition of the tumor cells is reflected. […] The killing effect of the toxin molecule was then assayed according to this condition. 1.2. Selection of cell lines
(§2) According to the purpose of the experiment, two disease models of breast cancer and NSCLC were selected, and SKBR3 tumor cells (HER2+, ATCC, Cat #HTB-30), MDA-MB-468 (HER2-, ATCC, Cat #HTB-132) and A549 (human non-small cell lung cancer cells, ATCC, Cat #CCL-185) were selected for screening.
(§3) 2) Cell plating: A549 cells were digested with trypsin, and the cells were terminated with the above medium, and 4.3×10^5, 7.2×10^5 and 11.5×10^5 cells were added to the medium to give a final volume of 26 mL. 180 μL of cell suspension was added to each well in columns 2 to 11 of a 96-well plate (coming, Cat #3903) to give cell densities of 3K, 5K and 8K per well. Wells in column 12 were filled with 200 μL of culture medium and the remaining wells were filled with PBS. The above operations were repeated on the SKBR3 and MDA-MB-468 cells. The sample was duplicated.
(§4) 2 mM of stock solution (stock diluted 10-fold in DMSO) was prepared in column 1 of drug preparation plate 1, then 10-fold dilution in DMSO by gradient was performed in column 10, and the wells in column 11 were filled with DMSO. 95 μL of corresponding culture solution was added into each well from column 2 to column 11 of the drug preparation plate 2, 5 μL of solution was pipetted from column 2 to column 11 of drug preparation plate 1 to drug preparation plate 2, the solution was mixed well, 20 μL of solution was pipetted, added into the plated cells, and continuously cultured for 3 days and 5 days.
(§5) 4) CTG assay (Cell Titer-Glo™, luminescent cell viability assay, Promega): the cell plates were removed on day 3 and day 5, and balanced to room temperature. 90 μL of CTG was added into each well and reacted at room temperature for 10 min in the dark. The absorption value was read using a microplate reader and IC50 was calculated.

SKBR3 tumor cells = assay: as above; assay type: cell-based; conditions: for Maximum inhibition: SKBR3, CTG
Description: as §1, §2, §3, §4, §5

A549 = assay: as above; assay type: cell-based, human; conditions: for Maximum inhibition: A549, CTG
Description: as §1, §2, §3, §4, §5

[1] = Test Example 6 pharmacokinetic study in beagles; conditions: male, beagle, dog, iv, 0.5 mg/kg
Description: The pharmacokinetic performance in beagles of the compounds of the present disclosure was studied and the pharmacokinetic profile thereof was evaluated.
Male 6 beagles were divided into 2 groups of 3, purchased from Shanghai Medicilon Inc., and subjected to administration test.
Plasma samples were stored in a refrigerator at −80° C. prior to testing. […] The plasma concentration of the test compounds in beagles after drug injection was determined: after administration, 25 μL of beagle plasma at various times after administration was taken, and added with 50 μL (100 ng/mL) of internal standard solution camptothecin (National Institutes for Drug Control) and 200 μL of acetonitrile. The mixture was vortexed for 5 min and centrifuged for 10 min (3700 rpm/min). 3 to 4 μL of the supernatant of the plasma sample was subjected to LC/MS assay (API4000 triple quadrupole tandem mass spectrometer (No. 2), Applied Biosystems, USA; Shimadzu, LC-30AD ultra high performance liquid chromatography system, Shimadzu, Japan.) The analysis was performed.

[2] = test system: human diffuse large B-cell lymphoma WSU-DLCL2; assay: Test Example 3 nude mouse subcutaneous xenograft tumor efficacy
Description: Human diffuse large B-cell lymphoma WSU-DLCL2 cells were purchased from DSMZ. WSU-DLCL2 cells were cultured in a 10-cm petri dish with RPMI 1640 medium (Gibco) containing 10% fetal bovine serum, penicillin and streptomycin (GIBCO, Cat #15070-063) and incubated in an incubator at 37° C. with 5% CO2. Subculturing was carried out 2-3 times a week and cells were collected, counted and inoculated when the cells grew in long-term exponentially.
Female BALB/c-nu nude mice with a growth period of 28-35 days was purchased from Beijing Huafukang Biotechnology Co., Ltd. Production license No.: SCXK (Beijing) 2019-0008, animal certification No.: 1103221911012510. Housing environment: SPF grade.
Each nude mouse was subcutaneously inoculated with 2.0×10^7 WSU-DLCL2 cells, and after the tumor volume grew to −100 mm^3, the animals were grouped according to tumor volume (D0). The mice was administrated by intravenous injection (IV), and the administration volume was 10 mL/kg; specific dosages and schedules are shown in Table 3. The tumor volumes and body weights were measured twice a week and the results were recorded.
The experimental index is to study the influence of the drug on the tumor growth, and the specific index is T/C % or tumor growth inhibition TGI (%). Tumor diameters were measured twice weekly with a vernier caliper and tumor volume (V) was calculated according to the following formula:
where a and b represent length and width, respectively. T/C (%)=(T−T0)/(C−C0)×100, where T and C were tumor volumes at the end of the experiment; T0 and C0 were tumor volumes at the beginning of the experiment.
If the volume of tumor shrank compared with its initial volume, i.e., T<T0 or C<C0, it was defined as partial regression(PR) of tumor; if the tumor completely disappeared, it was defined as complete regression (CR) of tumor.
Unless otherwise indicated, comparison between tumor volumes of the two groups was made by two-tailed student's t-test, with P<0.05 defined as statistically significant difference.

human CD79B [3] = biological target: T1, human CD79B (Homo sapiens, UniProt P40259); assay: ELISA of culture supernatant of anti-human CD79B hybridoma positive clones; assay type: binding; conditions: 1 μg/mL coated antigen
T1 construct: the extracellular region (ECD) of which comprises 159 amino acids (Met1-Asp159); human Fc domain (hFc) OR His tag; made in house; host or cells: 293F cells
T1 sequence (P40259 29-159 limits assumed): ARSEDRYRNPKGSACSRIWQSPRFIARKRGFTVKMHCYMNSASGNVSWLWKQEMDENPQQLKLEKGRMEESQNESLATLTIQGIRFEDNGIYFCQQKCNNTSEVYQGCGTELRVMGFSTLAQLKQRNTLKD
Description: (§6) 3) ELISA screening: the 96-well plates were correspondingly labeled before experiment, and coated with 1 μg/mL antigen at 50 μL per well in a refrigerator at 4° C. overnight. The next day, the coated antigen plates from the previous day were removed and washed once with a plate washer (cleaning solution: 1×PBST). After washing, the plates were blocked with 1% BSA blocking solution prepared in 1×PBST at 37° C. for 1 h. After being washed with 1×PBST cleaning solution for 3 times, the plates were added with 50 μL cell supernatant to be detected, and incubated in a 37° C. incubator for 1 h. After the plates were washed with 1×PBST cleaning solution for 3 times, added with 100 μL of goat anti-mouse secondary antibody diluted at 1:5000, and incubated in an incubator at 37° C. for 0.5 h. The plates were washed, the TMB color developing solution A solution and B solution in a ratio of 1:1 was taken for to color development. The color development reaction was terminated with 1 N hydrochloric acid for 15 min. Fluorescence value was read at 450 nm on a Spectra Max M5 multi-functional plate reader.
5) Hybridoma positive clone identification: after fusion and subclone screening of mouse splenocytes, multiple specific antibodies against human CD79B antigen were obtained, and the antibodies from the 17 strains of hybridomas having the highest binding to ELISA and FACS were produced and purified. […]

human CD79B [4] = biological target: T2, human CD79B (Homo sapiens, UniProt P40259); assay: FACS of culture supernatant of anti-human CD79B hybridoma positive clones on DOHH2 cells; assay type: binding
T2 construct: endogenous in cells; host or cells: DOHH2
T2 sequence (P40259 29-229): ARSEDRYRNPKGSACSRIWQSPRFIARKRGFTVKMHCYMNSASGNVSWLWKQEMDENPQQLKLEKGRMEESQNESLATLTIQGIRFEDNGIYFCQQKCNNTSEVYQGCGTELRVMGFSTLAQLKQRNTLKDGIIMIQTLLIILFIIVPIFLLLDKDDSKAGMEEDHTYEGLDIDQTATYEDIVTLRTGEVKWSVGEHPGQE
T2 sequence (P11912 33-226 partner): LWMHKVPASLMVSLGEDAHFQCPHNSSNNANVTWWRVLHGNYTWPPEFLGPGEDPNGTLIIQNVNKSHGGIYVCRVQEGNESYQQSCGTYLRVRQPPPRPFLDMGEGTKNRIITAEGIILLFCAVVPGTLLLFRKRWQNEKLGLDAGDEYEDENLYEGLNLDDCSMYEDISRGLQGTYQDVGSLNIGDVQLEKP
Description: (§7) 4) FACS screening: after centrifugation, the cell suspension of DOHH2 was resuspended in PBS containing 0.1% BSA, counted, added with the test cell supernatant and incubated at room temperature for 60 min. The cells were washed three times, then added with Anti-Mouse IgG (Fc specific)-FITC secondary antibody, and incubated at room temperature for 30 min in the dark. The cells were washed three times, gently resuspended in PBS containing 0.1% BSA, and then assayed using the machine.
5) Hybridoma positive clone identification: after fusion and subclone screening of mouse splenocytes, multiple specific antibodies against human CD79B antigen were obtained, and the antibodies from the 17 strains of hybridomas having the highest binding to ELISA and FACS were produced and purified. Meanwhile, specific antibodies against monkey CD79B antigen were obtained, and the 4 strains of hybridomas having the highest binding to ELISA and FACS were taken for production and purification of antibodies. mIgG was used as negative control in the both assays.

human CD79B [5] = biological target: T1, human CD79B; assay: ELISA assay on purified anti-human CD79B mouse monoclonal antibodies; assay type: binding
Description: as §6, with “2)” for “3)”, “assay on anti-human CD79B mouse monoclonal antibodies:” for “screening:”, “of diluted antibody at 1:10 at 100 nM,” for “cell supernatant to be detected,”

human CD79B [6] = biological target: T2, human CD79B; assay: FACS assay on purified anti-human CD79B mouse monoclonal antibodies (DOHH2 cells); assay type: binding
Description: as §7, with “3)” for “4)”, “assay on anti-human CD79B mouse monoclonal antibodies:” for “screening:”, “100 μL of antibody diluted 1:10 at 100 nM” for “the test cell supernatant”, “1 h.” for “60 min.”

Molecule: C=C1C[C@@H]2CC[C@@]34C[C@H]5O[C@H]6[C@@H](O3)[C@H]3O[C@H](CC[C@@H]3O[C@H]6[C@H]5O4)CC(=O)C[C@@H]3[C@@H](OC)[C@@H](C[C@@H](CN)OC)O[C@H]3C[C@H]3O[C@@H](CC[C@@H]1O2)C[C@@H](C)C3=C [Compound D-1]
IC50 (MDA-MB-468; Homo sapiens, MDA-MB-468): 0.183 nM | Maximum inhibition (MDA-MB-468): 88.01% | IC50 (SKBR3 tumor cells; Homo sapiens, SK-BR-3): 0.205 nM | Maximum inhibition (SKBR3 tumor cells): 96.87% | Maximum inhibition (A549): 81.34% | IC50 (A549; Homo sapiens, A549): 0.515 nM | AUC(0-t) ([1]; in vivo): 433 ng·h/mL | MRT ([1]; in vivo): 41.1 h | Vd ([1]; in vivo): 22 L/kg | clearance ([1]; in vivo): 8.9 mL/min/kg | concentration at 5 min ([1]; in vivo): 82.1 ng/mL | half-life ([1]; in vivo): 29.3 h

Molecule: polatuzumab [Polivy]
Tolerability in tumor-bearing mice ([2]; 1 mg/kg IV at D0, no significant weight loss): could well tolerate | Mean tumor volume (mean ± SEM) ([2]; D0, 1 mg/kg IV at D0): 108.07 ± 1.31 mm^3 | Mean tumor volume (mean ± SEM) ([2]; D17, 1 mg/kg IV at D0): 550.88 ± 52.37 mm^3 | T/C % ([2]; D17, 1 mg/kg IV at D0): 63% | Tumor inhibition rate (%) ([2]; D17, 1 mg/kg IV at D0): 37%

Molecule: C=C1C[C@@H]2CC[C@@]34C[C@H]5O[C@H]6[C@@H](O3)[C@H]3O[C@H](CC[C@@H]3O[C@H]6[C@H]5O4)CC(=O)C[C@@H]3[C@@H](OC)[C@@H](C[C@H](O)CN)O[C@H]3C[C@H]3O[C@@H](CC[C@@H]1O2)C[C@@H](C)C3=C [Eribulin, eribulin, reference compound]
Maximum inhibition (MDA-MB-468): 87.47% | Maximum inhibition (SKBR3 tumor cells): 94.90% | Maximum inhibition (A549): 81.50% | concentration at 5 min [1]: 217 ng/mL

Results (OD450) (human CD79B [3]): 3.41 | Mean fluorescence value (human CD79B [4]): 10036 | ELISA binding capacity (human CD79B [5]): highest ELISA binding capacity | FACS binding capacity (human CD79B [6]): highest FACS binding capacity
B1: mAb015: anti-human CD79B mouse monoclonal antibody, VH SEQ ID NO: 3, VL SEQ ID NO: 4 (antibody, V domains shown)
VH: QVQLQQSGAELARPGASVKLSCKASGSSFTSYGINWVKQRTGQGLEWIGEIFPRSGNTYYNEKFEGKATLTADKSSSTAYMELRSLTSEDSAVYFCAKGDLGDFDYWGQGTTLTVSS
VL: DFLMTQTPLSLPVRLGDQASISCRSSQSIVHSDGNTYFEWYLQKPGQSPKLLIYKVSNRFSGVPDRFSGSGSGTDFTLKISRVEAEDLGVYYCFQGSHVPWTFGGGTKLEIK
